From US11466019B2, “Triazolo[4,5-d] pyramidine derivatives and their use as purine receptor antagonists” (Vernalis (R&D) Limited, priority 2008, dated 2022)

Columns and labels:
[1] = target: T1, human adenosine A1 receptors (Homo sapiens, UniProt P30542); experiment: Adenosine receptor binding: binding affinities at hA1 receptors ([3H]DPCPX displacement); settings: Table 1; for Ki: [3H]DPCPX displacement, CHO-K1 membranes, read-out: Binding Affinity hA1-Ki; for Binding Selectivity A1/A2a: ratio of Ki values
T1 construct: expressed in transfected cells; host or cells: CHO-K1
T1 sequence (P30542 1-326): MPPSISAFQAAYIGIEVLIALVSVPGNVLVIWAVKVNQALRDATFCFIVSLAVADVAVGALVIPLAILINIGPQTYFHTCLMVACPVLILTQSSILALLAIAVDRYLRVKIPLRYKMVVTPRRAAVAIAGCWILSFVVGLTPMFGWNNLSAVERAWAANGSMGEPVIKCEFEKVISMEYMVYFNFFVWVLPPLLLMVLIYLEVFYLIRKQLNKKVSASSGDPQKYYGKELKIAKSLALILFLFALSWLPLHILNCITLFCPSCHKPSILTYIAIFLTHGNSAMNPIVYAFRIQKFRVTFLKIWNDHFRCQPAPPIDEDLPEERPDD
Experimental: Adenosine Receptor Binding: Binding Affinities at hA1 Receptors
The resultant homogenate was kept for immediate use in the binding.
(§1) Binding assays were performed in a total volume of 250 μL, containing [^3H]-DPCPX (3.0 nM), membranes and additional drugs. Total binding was determined using drug dilution buffer (50 mM Tris-HCl pH:7.5, 10 mM MgCl2, 5% DMSO). Non-specific binding was determined using 300 μM N6-cyclohexyladenosine (CHA). […] Filters were left to dry overnight, and Microscint-0 scintillation fluid was then added to the filters. The filters were then left for at least 2 hours before the radioactivity was assessed using a Canberra Packard TopCount microplate scintillation counter.
To determine the free ligand concentration, three vials were counted with 25 μL of [^3H]DPCPX containing 4 mL of Ultima-Gold MV scintillant on a Beckman LS6500 multi-purpose scintillation counter.
(§2) Data was analysed using a 4 parameter logistical equation and non-linear regression which yields affinity constants (pIC50), and slope parameters:
(§3) [formula] where E is the quantity of binding and [A] is the competitor concentration. The Ki is then determined using the Cheng-Prusoff equation: […]

[2] = target: T2, human adenosine A2A receptors (Homo sapiens, UniProt P29274); experiment: Adenosine receptor binding: binding affinities at hA2A receptors ([3H]CGS-21680 displacement); settings: Table 1; [3H]CGS-21680 displacement, HEK-293 membranes; read-out: Binding Affinity hA2A-Ki
T2 construct: host or cells: HEK-293
Experimental: Adenosine Receptor Binding: Binding Affinities at hA2A Receptors
as §1, with “The resultant homogenate was kept for immediate use in the binding assay. Binding” for “Binding”, “[^3H]-CGS21680 (20.0” for “[^3H]-DPCPX (3.0”, “pH 7.5,” for “pH:7.5,”, “CHA.” for “N6-cyclohexyladenosine (CHA).”
To determine the free ligand concentration, three vials were counted with 25 μL of [^3H]CGS21680 containing 4 mL of Ultima-Gold MV scintillant on a Beckman LS6500 multi-purpose scintillation counter.
as §2, §3

hA2B receptors = target: T3, hA2B receptors (Homo sapiens, UniProt P29275); experiment: Adenosine receptor binding: binding affinities at hA2B receptors ([3H]-ZM241385 displacement); settings: Table 1; for Ki: [3H]-ZM241385 displacement, HEK-293 membranes, read-out: Binding Affinity hA2B-Ki; for Binding Selectivity A2b/A2a: ratio of Ki values
T3 construct: host or cells: HEK-293
T3 sequence (P29275 1-332): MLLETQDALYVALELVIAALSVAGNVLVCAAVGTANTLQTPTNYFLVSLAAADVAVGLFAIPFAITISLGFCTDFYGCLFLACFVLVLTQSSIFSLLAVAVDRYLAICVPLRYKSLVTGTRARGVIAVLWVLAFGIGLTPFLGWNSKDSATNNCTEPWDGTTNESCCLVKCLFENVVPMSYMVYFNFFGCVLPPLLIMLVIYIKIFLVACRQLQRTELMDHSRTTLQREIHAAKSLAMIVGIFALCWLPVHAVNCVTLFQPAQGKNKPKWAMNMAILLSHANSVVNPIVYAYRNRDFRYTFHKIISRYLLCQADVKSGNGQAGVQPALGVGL

[3] = target: T4, human adenosine A3 receptors (Homo sapiens, UniProt P0DMS8); experiment: Adenosine receptor binding: binding affinities at hA3 receptors ([125I]-AB MECA displacement); settings: Table 1; for Ki: [125I]-AB MECA displacement, CHO-K1 membranes, read-out: Binding Affinity hA3-Ki; for Binding Selectivity A3/A2a: ratio of Ki values
T4 construct: expressed in transfected cells; host or cells: CHO-K1
T4 sequence (P0DMS8 1-318): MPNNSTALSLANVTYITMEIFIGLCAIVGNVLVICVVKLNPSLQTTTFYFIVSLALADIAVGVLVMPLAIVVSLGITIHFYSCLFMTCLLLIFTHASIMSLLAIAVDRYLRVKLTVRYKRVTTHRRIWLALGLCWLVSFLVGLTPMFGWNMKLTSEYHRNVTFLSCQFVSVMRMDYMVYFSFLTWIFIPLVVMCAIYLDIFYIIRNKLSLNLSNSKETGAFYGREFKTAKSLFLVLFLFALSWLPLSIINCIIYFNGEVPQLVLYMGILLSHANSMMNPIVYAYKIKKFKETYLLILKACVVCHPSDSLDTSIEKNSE
Experimental: [formula] Adenosine Receptor Binding: Binding Affinities at hA3 Receptors
The resultant homogenate was kept for immediate use in the binding assay.
as §1, with “Total” for “Binding assays were performed in a total volume of 250 μL, containing [^3H]-DPCPX (3.0 nM), membranes and additional drugs. Total”, “pH 7.5,” for “pH:7.5,”, “10” for “300”, “IB-MECA.” for “N6-cyclohexyladenosine (CHA).”
as §2, §3

[4] = test system: haloperidol-induced deficits in locomotor activity in mice; experiment: Haloperidol-induced hypolocomotion model (HaloLMA); assay type: in vivo; settings: female TO mice, intraperitoneal, haloperidol 0.2 mg/kg
Excerpt: Evaluation of Potential Anti-Parkinsonian Activity In Vivo: Haloperidol-Induced Hypolocomotion Model
This approach is also considered a valid method for screening drugs with potential antiparkinsonian effects. Thus, the ability of novel adenosine antagonists to block haloperidol-induced deficits in locomotor activity in mice can be used to assess both in vivo and potential antiparkinsonian efficacy.
Female TO mice (25-30 g) are used for all experiments. Animals are housed in groups of 8 (cage size-40 cm (width) by 40 cm (length) by 20 cm (height)) under 12 hour light/dark cycle (lights on 08:00), in a temperature (20±2° C.) and humidity (55±15%) controlled environment. Animals have free access to food and water, and are allowed at least 7 days to acclimatize after delivery before experimental use.
Liquid injectable haloperidol (e.g., 1 mL Serenance ampoules from Baker Norton, Harlow, Essex, each containing haloperidol BP 5 mg) are diluted to a final concentration of 0.02 mg/mL using saline. Test compounds are typically prepared as aqueous suspensions in 8% Tween. All compounds are administered intraperitoneally in a volume of 10 mL/kg.
1.5 hours before testing, mice are administered 0.2 mg/kg haloperidol, a dose that reduces baseline locomotor activity by at least 50%. Test substances are typically administered 5-60 minutes prior to testing. The animals are then placed individually into clean, clear polycarbonate cages (20 cm (width) by 40 cm (length) by 20 cm (height), with a flat perforated, Perspex lid). Horizontal locomotor activity is determined by placing the cages within a frame containing a 3 by 6 array of photocells linked to a computer, which tabulates beam breaks. Mice are left undisturbed to explore for 1 hour, and the number of beams breaks made during this period serves as a record of locomotor activity which is compared with data for control animals for statistically significant differences.
A number of the exemplified compounds of the present invention were tested in this assay and the results obtained are shown in Table 3, below.

T2 sequence (P29274 whole entry): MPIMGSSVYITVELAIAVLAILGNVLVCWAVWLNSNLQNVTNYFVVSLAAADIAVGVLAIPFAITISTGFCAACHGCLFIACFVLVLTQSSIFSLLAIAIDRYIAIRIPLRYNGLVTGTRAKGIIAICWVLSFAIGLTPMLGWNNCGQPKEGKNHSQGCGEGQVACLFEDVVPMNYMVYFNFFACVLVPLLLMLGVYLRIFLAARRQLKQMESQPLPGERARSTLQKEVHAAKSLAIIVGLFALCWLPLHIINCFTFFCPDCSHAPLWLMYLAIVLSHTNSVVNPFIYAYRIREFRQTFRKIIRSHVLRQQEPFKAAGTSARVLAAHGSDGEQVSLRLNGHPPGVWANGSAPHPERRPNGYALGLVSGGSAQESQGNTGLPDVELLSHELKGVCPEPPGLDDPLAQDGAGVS

| Compound | Ki [1] | Binding Selectivity A1/A2a [1] | Ki [2] | Ki (hA2B receptors) | Binding Selectivity A2b/A2a (hA2B receptors) | Ki [3] | Binding Selectivity A3/A2a [3] | In Vivo activity HaloLMA MED [4] |
| --- | --- | --- | --- | --- | --- | --- | --- | --- |
| Cc1ccc(-c2nc(N)nc3c2nnn3Cc2cccc(C3(O)CCCC3)n2)o1 [Example 3, 7-(5-methylfuran-2-yl)-3-(6-[1-hydroxy-1-cyclopentyl]pyrid-2-ylmethyl)-3H-[1,2,3]triazolo[4,5-d]pyrimidin-5-amine] | 366 nM | 226 | 1.6 nM | 976 nM | 602 | 754 nM | 465 | 1 mg/kg |
| CCOCCOCc1cccc(Cn2nnc3c(-c4ccc(C)o4)nc(N)nc32)n1 [Example 32] | 334 nM | 73 | 4.6 nM | 2020 nM | 442 | 2500 nM | 545 | 1 mg/kg |
| Cc1csc(-c2nc(N)nc3c2nnn3Cc2cccc(C3(O)CCCC3)n2)n1 [Example 27, 7-(4-methylthiazol-2-yl)-3-(6-[1-hydroxy-1-cyclopentyl]pyrid-2-ylmethyl)-3H-[1,2,3]triazolo[4,5-d]pyrimidin-5-amine] | 1730 nM | 154 | 11.3 nM | 5740 nM | 510 | 7520 nM | 668 | 10 mg/kg |
| COc1cccc(-c2nc(N)nc3c2nnn3Cc2cccc(C(C)(C)O)n2)c1 [Example 14, 7-(3-methoxyphenyl)-3-(6-[1-hydroxy-1-methylethyl]pyrid-2-ylmethyl)-3H-[1,2,3]triazolo[4,5-d]pyrimidin-5-amine] | 498 nM | 83 | 6 nM | 437 nM | 73 | 613 nM | 102 | 30 mg/kg |
| COC(C)(C)OCc1cccc(Cn2nnc3c(-c4ccc(C)o4)nc(N)nc32)n1 [Example 36, 7-(5-methylfuran-2-yl)-3-(6-[1-methoxy-1-methylethyl]oxymethylpyrid-2-ylmethyl)-3H-[1,2,3]triazolo[4,5-d]pyrimidin-5-amine] | 422 nM | 93 | 4.5 nM | – | – | 939 nM | 208 | 1 to 3 mg/kg |
| Cc1ccc(-c2nc(N)nc3c2nnn3Cc2cccc(C(C)(C)O)n2)o1 [Example 2, 7-(5-methylfuran-2-yl)-3-(6-[1-hydroxy-1-methylethyl]pyrid-2-ylmethyl)-3H-[1,2,3]triazolo[4,5-d]pyrimidin-5-amine] | 360 nM | 192 | 1.9 nM | 2190 nM | 1165 | 706 nM | 375 | 1 mg/kg |
| COCc1cccc(Cn2nnc3c(-c4cccc(OC)c4)nc(N)nc32)n1 [Example 18, 7-(3-methoxyphenyl)-3-(6-[methoxymethyl]pyrid-2-ylmethyl)-3H-[1,2,3]triazolo[4,5-d]pyrimidin-5-amine] | – | – | – | – | – | – | – | <30 mg/kg |
| Cc1ccc(-c2nc(N)nc3c2nnn3Cc2cccc(COCC(F)(F)F)n2)o1 [Example 37, 7-(5-methylfuran-2-yl)-3-(6-[2,2,2-trifluoroethyl]oxymethylpyrid-2-ylmethyl)-3H-[1,2,3]triazolo[4,5-d]pyrimidin-5-amine] | 231 nM | 52 | 4.4 nM | 2380 nM | 536 | 2490 nM | 560 | 1 mg/kg |
| COCc1cccc(Cn2nnc3c(-c4cccc(C#N)c4)nc(N)nc32)n1 [Example 24, 7-(3-cyanophenyl)-3-(6-[methoxymethyl]pyrid-2-ylmethyl)-3H-[1,2,3]triazolo[4,5-d]pyrimidin-5-amine] | – | – | – | – | – | – | – | 10 mg/kg |
| Nc1nc(-c2ccccc2)c2nnn(Cc3cccc(C4(O)CCCC4)n3)c2n1 [Example 9, 7-phenyl-3-(6-[1-hydroxy-1-cyclopentyl]pyrid-2-ylmethyl)-3H-[1,2,3]triazolo[4,5-d]pyrimidin-5-amine] | 706 nM | 72 | 9.8 nM | 3410 nM | 347 | – | – | 10 mg/kg |
| Nc1nc(-c2nccs2)c2nnn(Cc3cccc(CO[C@H]4CCOC4)n3)c2n1 [Example 38, S-7-(thiazol-2-yl)-3-(6-[tetrahydrofuran-3-yl]oxymethylpyrid-2-ylmethyl)-3H-[1,2,3]triazolo[4,5-d]pyrimidin-5-amine] | 2090 nM | 73 | 28.4 nM | 2980 nM | 105 | – | – | 10 mg/kg |
| Cc1csc(-c2nc(N)nc3c2nnn3Cc2cccc(CO[C@H]3CCOC3)n2)n1 [Example 25, S-7-(4-methylthiazol-2-yl)-3-(6-[tetrahydrofuran-3-yl]oxymethylpyrid-2-ylmethyl)-3H-[1,2,3]triazolo[4,5-d]pyrimidin-5-amine] | – | – | – | – | – | – | – | 3 mg/kg |
